{"source": "paper PMC7993281", "about": "(Clinical and Translational Science, 2020)", "origin": "cited, not measured here", "system": "plasma GlcCer", "conditions": "healthy subjects; cited from earlier work"}
{"smiles": "CC(C)(NC(=O)O[C@@H]1CN2CCC1CC2)c1csc(-c2ccc(F)cc2)n1", "note": "[venglustat]", "values": [{"measurement": "decrease of plasma GlcCer", "result": "up to 80%"}]}
